Measured values: patent publication US12624029B2, “JAK inhibitor compounds, method for synthesizing same and use thereof” (GALDERMA HOLDING SA, priority 2020, dated 2026)

How the values were obtained:
[1] = tested on: Salmonella typhimurium TA98 and TA100; assay: Mini Ames assay (TA98 and TA100); type: cell-based; settings: for increase in the mean number of revertants: TA98 and TA100, with or without metabolic activation (S9)
From the text: The Ames test in micro-method (in 6-well plates=mini Ames) follows the general principles of the standard Ames's technique. The Ames test used strains of bacteria Salmonella typhimurium that carry mutations in the genes involved in histidine synthesis. These strains are auxotrophic mutants, they require histidine for growth but cannot produce it. The assay was used to observe the ability of the test item to induce reverse mutations allowing the bacteria to grow in a histidine-free medium. The number of bacteria that revert and acquire the wild-type ability to grow in the absence of histidine can be estimated by counting the colonies that develop upon incubation. The use of different strains allows the identification of different mechanisms of gene mutation (TA98 for detection of frameshift mutations and TA100 for detection of base pair substitutions).
In a number of cases, the test item itself is not directly mutagenic but its metabolic derivatives are.
A toxicity assessment was performed on complete nutriment agar plate (with histidine) to define the highest concentration to be used in the genotoxicity assay. Solutions were prepared in 100% DMSO. The first concentration analyzed in the well (6-well plate) was 500 μg per plate followed by 7 serial dilutions (2 times factor of dilution). […] The viability of the positive and negative controls was analyzed for each strain, in the presence or absence of metabolic activation system, and were compared with historical data to validate the study. […]
Test items, positive and negative controls were incubated with the 2 bacterial strains. After 48 h incubation at 37° C. with and without metabolic activation (S9), the prototrophic mutant colonies that had grown on the plates were counted. The results were expressed as the mean number of revertants for each condition tested (3 replicates each) and for each concentration of the test item and controls. Induction ration, corresponding to the ratio of revertants in presence of test item versus spontaneous revertant, was determined for each concentration.

[2] = tested on: different pharmacological targets; assay: CEREP Safety Screen-44 in vitro pharmacology binding and enzyme/uptake assays; settings: tested at 10 μM; FIGS. 2-5
Protocol: An in vitro pharmacology assay was conducted to assess the capability of the compounds to interact with different pharmacological targets when tested at 10 μM in different binding and enzyme/uptake assays. The included targets are indicative of potential effects in major organs and drug-drug interactions.
Compound binding was calculated as a % inhibition of the binding of a radioactively labelled ligand specific for each target. Compounds were tested at 1.0E-05 M. Compound enzyme inhibition effect was calculated as a % inhibition of control enzyme activity. Results showing an inhibition or stimulation higher than 50% are considered to represent significant effects of the test compounds.

Structure (SMILES) | increase in the mean number of revertants [1] | pharmacological effects in safety screen compared with Ruxolitinib [2] | mutagenicity ([1]; TA98 & TA100, with and without metabolic system)
CN(CC1CCC1)S(=O)(=O)C[C@H]1C[C@@H](Nc2c(C#N)cnc3[nH]ccc23)C1 [Compound D] | did not induce a biologically significant increase | significantly improved pharmacological effects over Ruxolitinib | –
C=CCCN(C)S(=O)(=O)C[C@H]1C[C@@H](Nc2c(C#N)cnc3[nH]ccc23)C1 [Compound C, N-(But-3-en-1-yl)-1-((cis)-3-((5-cyano-1H-pyrrolo[2,3-b]pyridin-4-yl)amino)cyclobutyl)-N-methylmethanesulfonamide] | did not induce a biologically significant increase | significantly improved pharmacological effects over Ruxolitinib | not considered to be mutagenic
